Assays:
[1] = molecular target: Human immunodeficiency virus type 1 reverse transcriptase (Human immunodeficiency virus 1) (UniProt Q72547)
[2] = molecular target: Human immunodeficiency virus type 1 reverse transcriptase (Human immunodeficiency virus 1, UniProt Q72547); assay: Inhibition of HIV1 reverse transcriptase
[3] = Half life in human administered as single dose; type: ADME, organism-based; settings: in vivo
[4] = Tmax in human plasma after the first dose of drug; type: ADME, organism-based
[5] = Half life in human administered as multiple doses; type: ADME, organism-based; settings: in vivo

Row | SMILES | IC90 [1] [nM] | further results
1 | O=C1Nc2ccc(Cl)cc2[C@@](C#CC2CC2)(C(F)(F)F)N1 | 2.7 | 
2 | CC(C)=CCO[C@]1(C(F)(F)F)OC(=O)Nc2ccc(Cl)cc21 | 2.68 | 
3 | O=S1(c2ccccc2)=NC(=S)Nc2ccccc21 (stereo not drawn) |  | IC50 [2]: 950 nM
4 | O=C1Nc2ccc(Cl)cc2[C@@](C#CC2CC2)(C(F)(F)F)O1 [EFAVIRENZ] |  | half-life [3]: 52 h; Tmax [4]: 5 h; half-life [5]: 40 h
5 | CCCO[C@@](C#CC1CC1)(c1cc(CC)c(C)[nH]c1=O)C(F)(F)F | 32 | 
6 | Nc1ccc2c(c1)[C@@](C#CC1CC1)(C(F)(F)F)OC(=O)N2 | 20.6 | 
7 | CC(C)C#C[C@]1(C(F)(F)F)NC(=O)Nc2ccc(Cl)cc21 | 3 | 
8 | Cc1ccc2c(c1)C(O)(C#CC1CC1)C(=O)N2C (stereo not drawn) | 6 | 
9 | CCCCC[C@]12C[C@@]1(C(=O)OCC)C(=O)Nc1ccc(Br)cc12 |  | IC50 [2]: 1 nM
10 | CNc1ccc2c(c1)[C@@](C#CC1CC1)(C(F)(F)F)OC(=O)N2 | 9.02 | 
11 | C#CC1(C2CC2)c2cc(Cl)ccc2NC(=O)N1C (stereo not drawn) |  | IC50 [2]: 6 nM
12 | CN1C(=O)C(O)(C#CC2CC2)c2ccccc21 (stereo not drawn) | 40 | 
13 | O=C1Nc2ccc(OC(F)(F)F)cc2[C@@](C#CC2CC2)(C(F)(F)F)O1 | 18.9 | 
14 | O=C1Nc2ccc([N+](=O)[O-])cc2[C@@](C#CC2CC2)(C(F)(F)F)O1 | 0.83 | 
15 | C[C@@H]1O[C@](/C=C/C2CC2)(C(F)(F)F)c2cc(Cl)ccc2NC1=O |  | IC50 [2]: 46 nM
16 | C=CCC[C@]12C[C@@]1(C(=O)OCC)C(=O)Nc1ccc(Br)cc12 |  | IC50 [2]: 1 nM
17 | COc1ccc2c(c1)N(C(=O)OC(C)C)[C@@H](CSC)C(=O)N2 |  | IC50 [2]: 2 nM
18 | O=C1Nc2cccc(F)c2[C@@](C#CC2CC2)(C(F)(F)F)O1 | 4.35 | 
19 | CCOC1(c2ccccc2)c2cc(Cl)ccc2NC(=O)N1C (stereo not drawn) |  | IC50 [2]: 56 nM
20 | CC[C@H]1C(=O)Nc2ccc(F)cc2N1C(=O)OC(C)C [OPAVIRALINE] | 4.8 | IC50 [2]: 45 nM
21 | CC(C)=CCN1C(C)C(=O)Nc2ccc(Cl)cc2S1(=O)=O (stereo not drawn) |  | IC50 [2]: 800 nM
22 | CCOC(=O)[C@@H]1C[C@@]12C(=O)Nc1ccc(Cl)cc12 |  | IC50 [2]: 59 nM

Now from value to compound, other results behind:

Row | IC90 [1] [nM] | SMILES | further results
23 | 8.33 | CN(C)c1ccc2c(c1)[C@@](C#CC1CC1)(C(F)(F)F)OC(=O)N2 | 
24 | 279 | O=C1Nc2ccc(-c3ccccc3)cc2[C@@](C#CC2CC2)(C(F)(F)F)O1 | 
25 | 18.3 | CCO[C@]1(C(F)(F)F)OC(=O)Nc2ccc(Cl)cc21 | 
26 | 296 | CC(=O)Nc1ccc2c(c1)[C@@](C#CC1CC1)(C(F)(F)F)OC(=O)N2 | 
27 | 2 | COc1ccc2c(c1)[C@@](C#CC1CC1)(C(F)(F)F)OC(=O)N2 | 
28 | 7.35 | O=C1Nc2ccc(F)cc2[C@@](C#CC2CC2)(C(F)(F)F)O1 | 
29 | 10.3 | O=C1Nc2ccccc2[C@@](C#CC2CC2)(C(F)(F)F)O1 | 
30 | 3.8 | O=C1Nc2ccc(Cl)cc2[C@@](C#Cc2ccco2)(C(F)(F)F)O1 | 
31 | 3.9 | C=CCO[C@]1(C(F)(F)F)OC(=O)Nc2ccc(Cl)cc21 | 
32 | 5.39 | O=C1Nc2ccc(Cl)cc2[C@@](C#Cc2ccccn2)(C(F)(F)F)O1 | 
33 | 7.11 | Cc1ccc2c(c1)[C@@](C#CC1CC1)(C(F)(F)F)OC(=O)N2 | 
34 | 10.1 | CC(C)CCO[C@]1(C(F)(F)F)OC(=O)Nc2ccc(Cl)cc21 | 
35 | 10.2 | CCCCO[C@]1(C(F)(F)F)OC(=O)Nc2ccc(Cl)cc21 | 

Reference: ChEMBL document CHEMBL3751765, “Efavirenz a nonnucleoside reverse transcriptase inhibitor of first-generation: Approaches based on its medicinal chemistry” (Eur J Med Chem, 2016)
